Results reported in patent US20160331721A1, “COMPOSITION FOR ALLEVIATING AND PREVENTING ALZHEIMER'S DISEASE” (Sunway Biotech Co., LTD, priority 2015, published 2016).

Assays:
[1] = test system: Aβ-induced AD (Alzheimer's disease) rats; test: Spatial probe test in water maze (Day 26); format: in vivo, SD rats
Source text: (§1) Therefore, above descriptions have completely introduce the fabricating way for this Alzheimer's disease alleviating and preventing composition. Next, a variety of experimental data will be presented in following paragraphs for proving the practicability of the Alzheimer's disease alleviating and preventing composition. Please refer to FIG. 4, which shoes an experiment grouping table.
(§2) Please continuously refer to FIG. 5, where a daily schedule diagram for the animal experiments are provided.
Next, spatial probe test is completed on Day 26. During the spatial probe test, the rest platform is removed out of the water tank. To carry out the spatial probe test, the test rat is put on the starting point 1 located in quadrant I; and then, letting the rat swim in the water tank for 90 seconds so as to record the rat's swimming route as well as the time for staying in quadrant IV. Please refer to FIG. 8, which provides swimming route records of the test rats as working the spatial navigation test.

[2] = test system: Aβ-induced AD (Alzheimer's disease) rats; test: Working memory test in water maze (Day 27); format: in vivo, SD rats; conditions: FIG. 10, compared to Aβ group
Source text: as §1, §2

SMILES: COc1cc2c(cc1OC)C(=O)C(CC1CCN(Cc3ccccc3)CC1)C2 (stereo not drawn) [Donepezil]
- swimming route in spatial probe test ([1]; FIG. 8, compared to Aβ group (non-directional swimming), rest platform removed): directly swim into the quadrant IV
- time spent for searching target quadrant ([1]; FIG. 9, compared to Aβ group, target quadrant IV): the Aβ group spend more time to find the target quadrant
- escape latency, working memory test [2]: the Aβ group spend more time to find the target quadrant
